Assays:
Rce1p [1] = conditions: previously reported, ref [9], [10], [13], cited from earlier work; for Vmax: no quencher
Rce1p [2] = conditions: ref [8], [10]; cited from earlier work
yeast Rce1p = target: T1, yeast Rce1p (Saccharomyces cerevisiae, UniProt Q03530); assay: In vitro fluorescence-based Ca1a2X proteolysis assay; type: biochemical, S. cerevisiae
T1 sequence (Q03530 1-315): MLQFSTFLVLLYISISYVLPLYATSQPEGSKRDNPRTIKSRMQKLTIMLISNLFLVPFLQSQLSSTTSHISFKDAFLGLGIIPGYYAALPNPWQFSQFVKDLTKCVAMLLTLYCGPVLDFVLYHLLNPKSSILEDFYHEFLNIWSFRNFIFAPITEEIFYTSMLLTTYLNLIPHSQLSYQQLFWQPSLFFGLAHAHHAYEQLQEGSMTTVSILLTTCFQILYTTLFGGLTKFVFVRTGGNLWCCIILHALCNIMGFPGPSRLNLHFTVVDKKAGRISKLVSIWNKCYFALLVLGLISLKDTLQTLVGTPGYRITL

Rce1p [3] = assay: Large-scale Rce1p proteolysis with ESI-MS and MS-MS identification of product; type: biochemical, S. cerevisiae; conditions: 150 μM substrate, membranes 0.3 mg/mL, 100 mM Hepes, 5 mM MgCl2, pH 7.5, 30 °C, 3–3.5 h; ESI-MS [M+2H]2+

| Molecule | Vmax (Rce1p [1]) | Km (Rce1p [1]) [µM] | inhibition of Rce1p (Rce1p [2]) | also measured |
| --- | --- | --- | --- | --- |
| KSKTKC(Fr)VIM | 600 nmol/h/mg Rce1p-containing membrane protein | 4 |  |  |
| c1cnc2c(c1)ccc1cccnc12 [1,10-phenanthroline] |  |  | inhibited |  |
| Abz-KSKTKC(Fr)VIM | 600 nmol/h/mg Rce1p-containing membrane protein | 4 |  |  |
| [Zn] [zinc] |  |  | inhibited |  |
| Abz-KSKTKC(C5BP)K(Dnp)IM [Peptide 4] |  |  |  | Vmax/KM (yeast Rce1p; carbonate-washed yeast membranes, pH 7.5, 30 °C, n=2 (2), n=5 (4)): 4.8×10^−5 min/mg protein; binding affinity of 4 relative to 2 (fold higher, from KM) (yeast Rce1p; compared with 2): 3.4 fold; efficiency (Vmax/KM) of 4 relative to 2 (fold lower) (yeast Rce1p; compared with 2): approximately 18 fold; maximal rate of 4 relative to 2 (fold lower) (yeast Rce1p; compared with 2): approximately 60 fold; identity of product of Rce1p-catalyzed proteolysis (Rce1p [3]): consistent with the expected product 8 |

Source: article PMC2965201 (Bioorganic & medicinal chemistry, 2010)
